A value given as a limit tells only on which side of the number the result lay.

Here are results for 36 compounds from patent publication US20240383908A1, “SYNTHESIS AND APPLICATION OF PHOSPHATASE DEGRADER” (HINOVA PHARMACEUTICALS INC., priority 2021, published 2024).

In this experiment the target is T1, SHP2 protein (Homo sapiens, UniProt Q06124).
T1 sequence (Q06124 1-593): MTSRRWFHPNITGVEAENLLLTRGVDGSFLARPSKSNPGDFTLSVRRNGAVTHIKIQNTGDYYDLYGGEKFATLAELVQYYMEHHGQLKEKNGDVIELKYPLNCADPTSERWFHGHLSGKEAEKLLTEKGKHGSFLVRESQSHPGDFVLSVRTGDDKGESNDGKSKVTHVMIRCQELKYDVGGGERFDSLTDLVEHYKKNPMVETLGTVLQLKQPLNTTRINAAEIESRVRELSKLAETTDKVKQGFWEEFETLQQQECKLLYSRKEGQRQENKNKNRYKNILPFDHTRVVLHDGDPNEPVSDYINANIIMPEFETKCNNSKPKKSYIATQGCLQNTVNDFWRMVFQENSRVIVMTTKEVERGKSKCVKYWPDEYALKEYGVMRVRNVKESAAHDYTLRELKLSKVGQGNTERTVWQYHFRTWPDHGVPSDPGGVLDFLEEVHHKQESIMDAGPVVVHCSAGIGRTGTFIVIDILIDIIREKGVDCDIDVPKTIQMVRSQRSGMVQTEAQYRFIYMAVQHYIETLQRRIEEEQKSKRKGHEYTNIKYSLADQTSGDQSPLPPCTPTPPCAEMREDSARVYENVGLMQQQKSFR
The experiment is described as follows: Degradation activity on SHP2 protein in MV-411 cells (Western blot, DC50). In kind it is cell-based. Details: endogenous in cells. The following applies: MV411 cells, 24 hours, read-out: Degradation activity for differenct cell lines MV411 (DC50). In outline: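 MV-411 cells (1×10^6 cells/well, IMDM + 10% FBS) were treated 24 h with compound at 0.1-100 nM final, 0.1% DMSO, duplicates. SHP2 measured by Western blot against GAPDH, band density normalised to DMSO control; DC50 from dose-response fit.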
For orientation: In western blotting, separated proteins are transferred to a membrane and probed.
For the compound `CC1(N)CCN(c2cnc(Sc3cccc(NC(=O)CCCCCCCN4CC5(C4)CN(c4ccc(C(=O)NCc6ccc7c(c6)CN(C6CCC(=O)NC6=O)C7=O)nn4)C5)c3)cn2)CC1` (stereo not drawn) [Compound 81], the DC50 is less than 100 nM. For `Cc1ncsc1-c1ccc([C@H](C)NC(=O)[C@@H]2C[C@@H](O)CN2C(=O)[C@@H](NC(=O)c2cnc(N3CCN(CCCC(=O)Nc4cccc(Sc5cnc(N6CCC(C)(N)CC6)cn5)c4)CC3)nc2)C(C)(C)C)cc1` [Compound 82], the DC50 is less than 100 nM. In the case of `CC1(N)CCN(c2cnc(Sc3cccc(NC(=O)CCCN4CCN(c5ncc(C(=O)NCc6ccc7c(c6)CN(C6CCC(=O)NC6=O)C7=O)cn5)CC4)c3)cn2)CC1` (stereo not drawn) [Compound 83], the DC50 was more than 1000 nM. Consider `CC1(N)CCN(c2cnc(Sc3cccc(NC(=O)CCN4CCN(Cc5ccc(COc6cccc7c6CN(C6CCC(=O)NC6=O)C7=O)cc5)CC4)c3)cn2)CC1` (stereo not drawn) [Compound 84], for which the DC50 was more than 1000 nM. Consider `CC(=O)NC1(C)CCN(c2cnc(Sc3cccc(NC(=O)CCCCCCCCN4CCN(c5ncc(C(=O)NCc6ccc7c(c6)CN(C6CCC(=O)NC6=O)C7=O)cn5)CC4)c3)cn2)CC1` (stereo not drawn) [Compound 85], for which the DC50 was more than 1000 nM. Take `CC1(N)CCN(c2cnc(Sc3cccc(NC(=O)CCCCCCOC4CN(c5ncc(C(=O)NCc6ccc7c(c6)CN(C6CCC(=O)NC6=O)C7=O)cn5)C4)c3)cn2)CC1` (stereo not drawn) [Compound 87]: the DC50 was less than 100 nM. For the compound `Cc1ncsc1-c1ccc([C@H](C)NC(=O)[C@@H]2C[C@@H](O)CN2C(=O)[C@@H](NC(=O)c2cnc(N3CCC4(CN(CCCCC(=O)Nc5cccc(Sc6cnc(N7CCC(C)(N)CC7)cn6)c5)C4)C3)nc2)C(C)(C)C)cc1` [Compound 88], the DC50 was less than 100 nM.

Take `CC1(N)CCN(c2cnc(Sc3cccc(NC(=O)CCCCN4CC5(CCN(c6ncc(C(=O)NCc7ccc8c(c7)CN(C7CCC(=O)NC7=O)C8=O)cn6)C5)C4)c3)cn2)CC1` (stereo not drawn) [Compound 89]: the DC50 is less than 100 nM. Take `CC1(N)CCN(c2cnc(Sc3cccc(NC(=O)CCCCCCCOC4CCN(c5ncc(C(=O)Nc6cccc7c6CN(C6CCC(=O)NC6=O)C7=O)cn5)CC4)c3)cn2)CC1` (stereo not drawn) [Compound 92]: the DC50 was more than 1000 nM.

As for `CC1(N)CCN(c2cnc(Sc3cccc(NC(=O)CCCCCCCOC4CCN(c5ncc(C(=O)Nc6ccc7c(c6)CN(C6CCC(=O)NC6=O)C7=O)cn5)CC4)c3)cn2)CC1` (stereo not drawn) [Compound 93], the DC50 is less than 100 nM. Take `CC1(N)CCN(c2cnc(Sc3cccc(NC(=O)CCCCCCCOC4CCN(c5ncc(C(=O)Nc6ccc7c(c6)C(=O)N(C6CCC(=O)NC6=O)C7)cn5)CC4)c3)cn2)CC1` (stereo not drawn) [Compound 94]: the DC50 was more than 1000 nM. Consider `CC1(N)CCN(c2cnc(Sc3cccc(NC(=O)CCCCCCCN4CC5CN(Cc6ccc(COc7cccc8c7CN(C7CCC(=O)NC7=O)C8=O)cc6)CC5C4)c3)cn2)CC1` (stereo not drawn) [Compound 95], for which the 50% degradation concentration (DC50) is less than 100 nM. In the case of `CC1(N)CCN(c2cnc(Sc3cccc(NC(=O)CCN4CC5(CCN(c6ccc(C(=O)NCc7ccc8c(c7)CN(C7CCC(=O)NC7=O)C8=O)nn6)C5)C4)c3)cn2)CC1` (stereo not drawn) [Compound 97], the DC50 is more than 1000 nM. With `Cc1ncsc1-c1ccc([C@H](C)NC(=O)[C@@H]2C[C@@H](O)CN2C(=O)[C@@H](NC(=O)c2ccc(N3CC4CN(CCCCCCCC(=O)Nc5cccc(Sc6cnc(N7CCC(C)(N)CC7)cn6)c5)CC4C3)nn2)C(C)(C)C)cc1` (stereo partly drawn) [Compound 99], the DC50 is less than 100 nM.

For the compound `Cc1ncsc1-c1ccc([C@H](C)NC(=O)[C@@H]2C[C@@H](O)CN2C(=O)[C@@H](NC(=O)c2ccc(N3CC[C@H](OCCCCCCCC(=O)Nc4cccc(Sc5cnc(N6CCC(C)(N)CC6)cn5)c4)C3)nn2)C(C)(C)C)cc1` [Compound 101], the half-maximal degradation concentration (DC50) was less than 100 nM. Take `Cc1ncsc1-c1ccc([C@H](C)NC(=O)[C@@H]2C[C@@H](O)CN2C(=O)[C@@H](NC(=O)c2cnc(N3CC[C@@H](OCCCCCCCC(=O)Nc4cccc(Sc5cnc(N6CCC(C)(N)CC6)cn5)c4)C3)nc2)C(C)(C)C)cc1` [Compound 103]: the DC50 was less than 100 nM. Under `CC1(N)CCN(c2cnc(Sc3cccc(NC(=O)CCCCCCCN4CC5(CCN(c6ccc(C(=O)NCc7ccc8c(c7)CN(C7CCC(=O)NC7=O)C8=O)nn6)C5)C4)c3)cn2)CC1` (stereo not drawn) [Compound 106] stands less than 100 nM; under `C[C@@H]1OCC2(CCN(c3cnc(Sc4cccc(NC(=O)CCN5CC6(CCN(c7ccc(C(=O)NCc8ccc9c(c8)CN(C8CCC(=O)NC8=O)C9=O)nn7)C6)C5)c4)cn3)CC2)[C@@H]1N` (stereo partly drawn) [Compound 108], less than 100 nM; under `C[C@@H]1OCC2(CCN(c3cnc(Sc4cccc(NC(=O)CCCCN5CC6(CCN(c7ccc(C(=O)NCc8ccc9c(c8)CN(C8CCC(=O)NC8=O)C9=O)nn7)C6)C5)c4)cn3)CC2)[C@@H]1N` (stereo partly drawn) [Compound 109], less than 100 nM.

For the compound `C[C@@H]1OCC2(CCN(c3cnc(Sc4cccc(NC(=O)CCCCCCCN5CC6(CCN(Cc7ccc(COc8cccc9c8CN(C8CCC(=O)NC8=O)C9=O)cc7)C6)C5)c4)cn3)CC2)[C@@H]1N` (stereo partly drawn) [Compound 113], the DC50 is more than 1000 nM.

In the case of `CC1(N)CCN(c2cnc(Sc3cccc(NC(=O)CCCCCCCN4CC5(C4)CN(C(=O)/C=C/C(=O)NCc4ccc6c(c4)CN(C4CCC(=O)NC4=O)C6=O)C5)c3)cn2)CC1` (stereo not drawn) [Compound 114], the DC50 is more than 1000 nM. For the compound `Cc1ncsc1-c1ccc([C@H](C)NC(=O)[C@@H]2C[C@@H](O)CN2C(=O)[C@@H](NC(=O)/C=C/C(=O)N2CC3(CN(CCCCCCCC(=O)Nc4cccc(Sc5cnc(N6CCC(C)(N)CC6)cn5)c4)C3)C2)C(C)(C)C)cc1` [Compound 115], the DC50 is more than 1000 nM. `Cc1ncsc1-c1ccc([C@H](C)NC(=O)[C@@H]2C[C@@H](O)CN2C(=O)[C@@H](NC(=O)/C=C/C(=O)N2CCC3(CN(CCCCCCC(=O)Nc4cccc(Sc5cnc(N6CCC(C)(N)CC6)cn5)c4)C3)C2)C(C)(C)C)cc1` [Compound 116]: the DC50 is more than 1000 nM.

For `CC1(N)CCN(c2cnc(Sc3cccc(NC(=O)CCCCCCN4CC5(CCN(C(=O)/C=C/C(=O)NCc6ccc7c(c6)CN(C6CCC(=O)NC6=O)C7=O)C5)C4)c3)cn2)CC1` (stereo not drawn) [Compound 117], the DC50 was more than 1000 nM.

As to `Cc1ncsc1-c1ccc([C@H](C)NC(=O)[C@@H]2C[C@@H](O)CN2C(=O)[C@@H](NC(=O)c2ccc(N3CC4CCC(C3)N4CCCCCCCCC(=O)Nc3cccc(Sc4cnc(N5CCC(C)(N)CC5)cn4)c3)nn2)C(C)(C)C)cc1` [Compound 118], the DC50 fell in the range of 100 to 1000 nM. On to `Cc1ncsc1-c1ccc([C@H](C)NC(=O)[C@@H]2C[C@@H](O)CN2C(=O)[C@@H](NC(=O)c2ccc(N3CCC4(CN(CCCCCOCC(=O)Nc5cccc(Sc6cnc(N7CCC8(CC7)CO[C@@H](C)[C@H]8N)cn6)c5)C4)C3)nn2)C(C)(C)C)cc1` [Compound 120], for which the DC50 was less than 100 nM. Regarding `C[C@@H]1OCC2(CCN(c3cnc(Sc4cccc(NC(=O)COCCCCCN5CC6(CCN(c7ccc(C(=O)NCc8ccc9c(c8)CN(C8CCC(=O)NC8=O)C9=O)nn7)C6)C5)c4)cn3)CC2)[C@@H]1N` (stereo partly drawn) [Compound 121], the DC50 is less than 100 nM. `Cc1ncsc1-c1ccc([C@H](C)NC(=O)[C@@H]2C[C@@H](O)CN2C(=O)[C@@H](NC(=O)c2ccc(N3CCC4(CN(CCCCCOCC(=O)Nc5ccc(Sc6cnc(N7CCC(N)(CF)CC7)cn6)cc5)C4)C3)nn2)C(C)(C)C)cc1` [Compound 122]: the DC50 was less than 100 nM. For `NC1(CF)CCN(c2cnc(Sc3ccc(NC(=O)COCCCCCN4CC5(CCN(c6ccc(C(=O)NCc7ccc8c(c7)CN(C7CCC(=O)NC7=O)C8=O)nn6)C5)C4)cc3)cn2)CC1` (stereo not drawn) [Compound 123], the DC50 lay within 100 to 1000 nM. Under `CC1(N)CCN(c2cnc(Sc3cccc(NC(=O)COCCCCCN4CC5(CCN(c6ccc(C(=O)NCc7ccc8c(c7)CN(C7CCC(=O)NC7=O)C8=O)nn6)C5)C4)c3)cn2)CC1` (stereo not drawn) [Compound 124] stands less than 100 nM. On to `CC1(N)CCN(c2cnc(Sc3cccc(NC(=O)CCCCCCC(=O)N4CC5(CN(C(=O)/C=C/C(=O)NCc6ccc7c(c6)CN(C6CCC(=O)NC6=O)C7=O)C5)C4)c3)cn2)CC1` (stereo not drawn) [Compound 125], for which the DC50 was more than 1000 nM. `Cc1ncsc1-c1ccc([C@H](C)NC(=O)[C@@H]2C[C@@H](O)CN2C(=O)[C@@H](NC(=O)[C@@H]2C[C@H]2C(=O)N2CCC3(CN(CCCCCCC(=O)Nc4cccc(Sc5cnc(N6CCC(C)(N)CC6)cn5)c4)C3)C2)C(C)(C)C)cc1` [Compound 126]: the DC50 was 100 to 1000 nM. As for `CC1(N)CCN(c2cnc(Sc3cccc(NC(=O)CCCCCCN4CC5(CCN(C(=O)[C@@H]6C[C@H]6C(=O)NCc6ccc7c(c6)CN(C6CCC(=O)NC6=O)C7=O)C5)C4)c3)cn2)CC1` (stereo partly drawn) [Compound 127], the DC50 lay within 100 to 1000 nM. For `CC1(N)CCN(c2cnc(Sc3cccc(NC(=O)CCCCCCCN4CC5(CC(n6cc(C(=O)NCc7ccc8c(c7)CN(C7CCC(=O)NC7=O)C8=O)cn6)C5)C4)c3)cn2)CC1` (stereo not drawn) [Compound 128], the DC50 is less than 100 nM. On to `NC1(CF)CCN(c2cnc(Sc3ccc(NC(=O)CCCCN4CC5(CCN(c6ncc(C(=O)NCc7ccc8c(c7)CN(C7CCC(=O)NC7=O)C8=O)cn6)C5)C4)cc3)cn2)CC1` (stereo not drawn) [Compound 129], for which the DC50 was more than 1000 nM. For `Cc1ncsc1-c1ccc([C@H](C)NC(=O)[C@@H]2C[C@@H](O)CN2C(=O)[C@@H](NC(=O)[C@@H]2C[C@H]2C(=O)N2CCC3(CN(C(=O)CCCCCC(=O)Nc4cccc(Sc5cnc(N6CCC(C)(N)CC6)cn5)c4)C3)C2)C(C)(C)C)cc1` [Compound 130], the DC50 is less than 100 nM.

The term DC50 denotes the midpoint of the concentration-degradation curve.
